Earlier results on one substance are cited in publication PMC4939794 (Biochemistry, 2015).

With green fluorescent protein [GFP], where the note is “depending on the variant and the conditions”, the CRO maturation half-life was 19 to 83 min. Besides, the folding rates (multiphasic, three to five folding rates) is 10 to 0.01 s^−1. Also, the unfolding half-life entry (water at neutral pH, standard temperature and pressure, estimated) is on record as “greater than 1 month”.
